According to PubChem BioAssay AID1963874 (Molecular Pharmacology Branch, DTP, NCI, 2024):

Tested on: 253994-281-T-J1-PDC KRAS-mutant spheroids with HUVEC/MSC, viability
Assay: Anticancer human tumor 253994-281-T-J1-PDC patient-derived colorectal carcinoma cell line growth inhibition [KRAS2]
Settings: for viability, T/C: stronger effect = lower value
Method in brief: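 KRAS-mutant tumor cells were grown as spheroids with HUVEC endothelial cells and human MSCs as stroma. Targeted agents were tested alone and with KRAS pathway inhibitors. Doses started at or near clinical Cmax, or 10 microM, descending half-log.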

[1] = curve of first compound, second compound 0.1 µM
[2] = curve of first compound, second compound 0.316 µM
[3] = curve of first compound, second compound 1 µM
[4] = curve of first compound, second compound 3.16 µM
[5] = curve of first compound, second compound 10 µM
[6] = second compound 0.1 µM, first compound 0.0316 µM
[7] = second compound 0.1 µM, first compound 0.1 µM
[8] = second compound 0.1 µM, first compound 0.316 µM
[9] = second compound 0.1 µM, first compound 1 µM
[10] = second compound 0.1 µM, first compound 3.16 µM
[11] = second compound 0.1 µM, first compound 10 µM
[12] = second compound 0.316 µM, first compound 0.0316 µM
[13] = second compound 0.316 µM, first compound 0.1 µM
[14] = second compound 0.316 µM, first compound 0.316 µM
[15] = second compound 0.316 µM, first compound 1 µM
[16] = second compound 0.316 µM, first compound 3.16 µM
[17] = second compound 0.316 µM, first compound 10 µM
[18] = second compound 1 µM, first compound 0.0316 µM
[19] = second compound 1 µM, first compound 0.1 µM
[20] = second compound 1 µM, first compound 0.316 µM
[21] = second compound 1 µM, first compound 1 µM
[22] = second compound 1 µM, first compound 3.16 µM
[23] = second compound 1 µM, first compound 10 µM
[24] = second compound 3.16 µM, first compound 0.0316 µM
[25] = second compound 3.16 µM, first compound 0.1 µM
[26] = second compound 3.16 µM, first compound 0.316 µM
[27] = second compound 3.16 µM, first compound 1 µM
[28] = second compound 3.16 µM, first compound 3.16 µM
[29] = second compound 3.16 µM, first compound 10 µM
[30] = second compound 10 µM, first compound 0.0316 µM
[31] = second compound 10 µM, first compound 0.1 µM
[32] = second compound 10 µM, first compound 0.316 µM
[33] = second compound 10 µM, first compound 1 µM
[34] = second compound 10 µM, first compound 3.16 µM
[35] = second compound 10 µM, first compound 10 µM
[36] = second compound 0.1 µM, first compound 0.000316 µM
[37] = second compound 0.1 µM, first compound 0.001 µM
[38] = second compound 0.1 µM, first compound 0.00316 µM
[39] = second compound 0.1 µM, first compound 0.01 µM
[40] = second compound 0.316 µM, first compound 0.000316 µM
[41] = second compound 0.316 µM, first compound 0.001 µM
[42] = second compound 0.316 µM, first compound 0.00316 µM
[43] = second compound 0.316 µM, first compound 0.01 µM
[44] = second compound 1 µM, first compound 0.000316 µM
[45] = second compound 1 µM, first compound 0.001 µM
[46] = second compound 1 µM, first compound 0.00316 µM
[47] = second compound 1 µM, first compound 0.01 µM
[48] = second compound 3.16 µM, first compound 0.000316 µM
[49] = second compound 3.16 µM, first compound 0.001 µM
[50] = second compound 3.16 µM, first compound 0.00316 µM
[51] = second compound 3.16 µM, first compound 0.01 µM
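Further: spheroids exposed to agents for seven days before readout.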
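Wherever viability, T/C is given: percent of DMSO vehicle control viability.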

In the case of `O=C(c1cc(Cc2n[nH]c(=O)c3ccccc23)ccc1F)N1CCN(C(=O)C2CC2)CC1` + CC1OCC2(CCN(c3cnc(Sc4ccnc(N)c4Cl)c(N)n3)CC2)C1N, the IC50 [1] is reported as greater than 10000 nM, the IC50 [2] is reported as greater than 10000 nM and the IC50 [3] is reported as greater than 10000 nM. For the same molecule, the IC50 [4] was less than 31.6 nM, the IC50 [5] was 655 nM and the viability, T/C [6] was 99%. It also gave a viability, T/C [7] of 81.4%, a viability, T/C [8] of 93.7% and a viability, T/C [9] of 90.7%. It also gave a viability, T/C [10] of 84.2%, a viability, T/C [11] of 95.5% and a viability, T/C [12] of 79.8%. For the same molecule, the viability, T/C [13] was 65.7%, the viability, T/C [14] was 62.9% and the viability, T/C [15] was 120%. For the same molecule, the viability, T/C [16] was 84.6%, the viability, T/C [17] was 79.5% and the viability, T/C [18] was 93.3%. The viability, T/C [19] was 94.1%, the viability, T/C [20] was 93.2% and the viability, T/C [21] was 81%. For the same molecule, the viability, T/C [22] was 80.2%, the viability, T/C [23] was 90.7% and the viability, T/C [24] was 52.8%. The viability, T/C [25] was 46.2%, the viability, T/C [26] was 46.5% and the viability, T/C [27] was 48.4%. For the same molecule, the viability, T/C [28] was 45.6%, the viability, T/C [29] was 57.6% and the viability, T/C [30] was 47.2%. It also gave a viability, T/C [31] of 45.5%, a viability, T/C [32] of 115% and a viability, T/C [33] of 38.8%. It also gave a viability, T/C [34] of 31.6% and a viability, T/C [35] of 30.4%.

Molecule `CC(C)n1nc(-c2ccc3oc(N)nc3c2)c2c(N)ncnc21` + C=CC(=O)N1CCN(c2nc(OCC3CCCN3C)nc3c2CCN(c2cccc4cccc(C)c24)C3)CC1CC#N has an IC50 (curve of first compound, second compound 0.0316 µM) greater than 100 nM, an IC50 [1] greater than 100 nM and an IC50 [2] greater than 100 nM. It also gave an IC50 [3] greater than 100 nM, an IC50 [4] of 0.686 nM and a viability, T/C (second compound 0.0316 µM, first compound 0.000316 µM) of 97.5%. For the same molecule, the viability, T/C (second compound 0.0316 µM, first compound 0.001 µM) was 90.1%, the viability, T/C (second compound 0.0316 µM, first compound 0.00316 µM) was 80.2% and the viability, T/C (second compound 0.0316 µM, first compound 0.01 µM) was 82.7%. It also gave a viability, T/C (second compound 0.0316 µM, first compound 0.0316 µM) of 84%, a viability, T/C (second compound 0.0316 µM, first compound 0.1 µM) of 54.7% and a viability, T/C [36] of 95.6%. The viability, T/C [37] was 88.8%, the viability, T/C [38] was 89.1% and the viability, T/C [39] was 86.8%. It also gave a viability, T/C [6] of 85.8%, a viability, T/C [7] of 58.4% and a viability, T/C [40] of 95.4%. It also gave a viability, T/C [41] of 96.7%, a viability, T/C [42] of 85.2% and a viability, T/C [43] of 81.6%. For the same molecule, the viability, T/C [12] was 68.7%, the viability, T/C [13] was 55% and the viability, T/C [44] was 106%. It also gave a viability, T/C [45] of 89.9%, a viability, T/C [46] of 79.1% and a viability, T/C [47] of 77.4%. The viability, T/C [18] was 68.5%, the viability, T/C [19] was 54% and the viability, T/C [48] was 73.4%. It also gave a viability, T/C [49] of 25.1%, a viability, T/C [50] of 56.7% and a viability, T/C [51] of 17%. For the same molecule, the viability, T/C [24] was 62.4% and the viability, T/C [25] was 31.6%.

With `C=CC(=O)N1CCN(c2nc(OCC3CCCN3C)nc3c2CCN(c2cccc4cccc(C)c24)C3)CC1CC#N` (stereo not drawn) the viability, T/C (compound 0.0316 µM) was 94.7% [middle of 17 runs], the viability, T/C (compound 0.1 µM) was 93.6% [middle of 17 runs] and the IC50 (compound alone, run of 09/02/2021) was greater than 3160 nM.

In the case of `COC(=O)c1ccc2c(C(=Nc3ccc(N(C)C(=O)CN4CCN(C)CC4)cc3)c3ccccc3)c(O)[nH]c2c1` + C=CC(=O)N1CCN(c2nc(=O)n(-c3c(C)ccnc3C(C)C)c3nc(-c4c(O)cccc4F)c(F)cc23)C(C)C1, the IC50 [1] is reported as greater than 10000 nM, the IC50 [2] is reported as 5610 nM and the IC50 [3] is reported as 5470 nM. For the same molecule, the IC50 [4] was 4800 nM, the IC50 [5] was 4300 nM and the viability, T/C [6] was 124%. For the same molecule, the viability, T/C [7] was 115%, the viability, T/C [8] was 98.4% and the viability, T/C [9] was 98.2%. For the same molecule, the viability, T/C [10] was 86.8%, the viability, T/C [11] was 60.1% and the viability, T/C [12] was 100%. For the same molecule, the viability, T/C [13] was 99.4%, the viability, T/C [14] was 92.3% and the viability, T/C [15] was 92.7%. For the same molecule, the viability, T/C [16] was 83.7%, the viability, T/C [17] was 15.8% and the viability, T/C [18] was 121%. The viability, T/C [19] was 108%, the viability, T/C [20] was 96.7% and the viability, T/C [21] was 92.9%. The viability, T/C [22] was 75.5%, the viability, T/C [23] was 26.1% and the viability, T/C [24] was 104%. For the same molecule, the viability, T/C [25] was 108%, the viability, T/C [26] was 91% and the viability, T/C [27] was 90.2%. The viability, T/C [28] was 76.2%, the viability, T/C [29] was 9.17% and the viability, T/C [30] was 111%. For the same molecule, the viability, T/C [31] was 116%, the viability, T/C [32] was 101% and the viability, T/C [33] was 86.9%. For the same molecule, the viability, T/C [34] was 73.4% and the viability, T/C [35] was 0.56%.

For `CC(=O)Nc1cccc(-n2c(=O)n(C3CC3)c(=O)c3c(Nc4ccc(I)cc4F)n(C)c(=O)c(C)c32)c1` + CNCc1ccccc1-c1csc(C(C)Nc2nc(C)nc3cc(OC)c(OC)cc23)c1, the IC50 [1] was 0.649 nM, the IC50 [2] was 0.415 nM and the IC50 [3] was 0.205 nM. For the same molecule, the IC50 [4] was less than 0.1 nM, the IC50 [5] was less than 0.1 nM and the viability, T/C (second compound 0.1 µM, first compound 0.0001 µM) was 81.3%. For the same molecule, the viability, T/C [36] was 81.5%, the viability, T/C [37] was 31.4% and the viability, T/C [38] was 19%. It also gave a viability, T/C [39] of 10.6%, a viability, T/C [6] of 5.26% and a viability, T/C (second compound 0.316 µM, first compound 0.0001 µM) of 80.2%. It also gave a viability, T/C [40] of 57.2%, a viability, T/C [41] of 28.7% and a viability, T/C [42] of 17.2%. It also gave a viability, T/C [43] of 10.9%, a viability, T/C [12] of 4.68% and a viability, T/C (second compound 1 µM, first compound 0.0001 µM) of 67.4%. The viability, T/C [44] was 39.9%, the viability, T/C [45] was 16.3% and the viability, T/C [46] was 10.7%. The viability, T/C [47] was 7.62%, the viability, T/C [18] was 3.86% and the viability, T/C (second compound 3.16 µM, first compound 0.0001 µM) was 5.81%. For the same molecule, the viability, T/C [48] was 1.42%, the viability, T/C [49] was 0.92% and the viability, T/C [50] was 0.18%. For the same molecule, the viability, T/C [51] was 0.16%, the viability, T/C [24] was 0.34% and the viability, T/C (second compound 10 µM, first compound 0.0001 µM) was 0.16%. For the same molecule, the viability, T/C (second compound 10 µM, first compound 0.000316 µM) was 0.15%, the viability, T/C (second compound 10 µM, first compound 0.001 µM) was 0.14% and the viability, T/C (second compound 10 µM, first compound 0.00316 µM) was 0.18%. For the same molecule, the viability, T/C (second compound 10 µM, first compound 0.01 µM) was 0.12% and the viability, T/C [30] was 0.21%.
